Source: patent EP3532040B1, “A PERSONAL CARE COMPOSITION” (Unilever Global IP Limited, priority 2016, dated 2018)

Experiments:
[1] = Visual assessment of color of the compound compared with curcumin; assay type: physicochemical; conditions: color of the compound itself
Source text: It is desirable that the color of the novel compound of the present invention lies within the colorless to light yellow range for optimum visual appeal and usage in topical and/or skin care compositions. Visual assessment of color from a solid or solution sample of novel compounds in comparison to a solid or solution sample of curcumin provides a means to determine relative reduction of color and appeal potential. In addition, UV-Vis spectra of solution samples of novel compounds in comparison to a solution sample of curcumin provides a means to measure color experimentally and allows a more direct measurement of color. Thus, using these two simple measurements it is possible to assess the relative reduction in color of novel inventive compounds relative to curcumin and allows prioritization of compounds for further development.

[2] = test system: Primary human gingival fibroblasts; test: Anti-inflammation efficacy in Human Gingival Fibroblasts assay (P. gingivalis-stimulated IL-6, IL-8, MCP-1 release, ELISA); assay type: cell-based; conditions: 20 µM active preincubated 2 h, then heat-inactivated P. gingivalis 4 h
Method: Primary human gingival fibroblasts (HGFs, Cat No. 2620, ScienCell™) were cultured in complete fibroblast medium which included 500 mL of basal medium, 10 mL of fetal bovine serum (FBS), 5 mL of fibroblast growth supplement, and 5 mL of penicillin/streptomycin solution (Cat No. 2301, ScienCell™). HGFs were seeded in 24 well-plates at the density of 2 × 10^4 cells / well and cultured for 72 h. Cells were preincubated with active for 2 h. After removal of the active medium, the cells were washed with PBS and further treated with heat-inactivated P. gingivalis (Cat. 33277, ATCC). After 4 h, the supernatants were collected and measured for IL-6, IL-8 and monocyte chemoattractant protein (MCP) -1 as pro-inflammatory bio-markers using ELISA.

THP1-XBlue cells = test: Anti-inflammation efficacy in THP-1 in vitro assay (LPS-stimulated IL-6 release, ELISA); assay type: cell-based; conditions: 24 h, PMA-differentiated cells, LPS alone 10508
Method: THP1-XBlue™ (Cat No: thpx-sp, InvivoGen) cells were cultured as suspense in RPMI 1640 medium supplemented with 10% FBS, penicillin (10 U/mL) - streptomycin (10 µg/ML). Cells were differentiated in 24-well plates at the density of 5 × 10^5 cells / well with 100 nM PMA for 72 h. Cells were then co-treated with pure E. coli lipopolysaccharides (LPS) and with active. After 24 h, the supernatants were collected and measured for interleukin (IL)-6 as pro-inflammatory bio-marker using enzyme-linked immunosorbent assay (ELISA).

[3] = Solubility in solvents compared with curcumin; assay type: physicochemical
[4] = Color assessment of solutions (L*a*b* color space, Labscan XE, and visual appearance); assay type: physicochemical; conditions: 200 µM in ethyl acetate; for b* / L* / a*: 21 °C; for b*: vehicle 1.78; for L*: vehicle 68.79; for a*: vehicle -0.49
Method: Solutions of compound with formula 1 and curcumin were prepared in ethyl acetate (200 µM) and the L*a*b* color space measured at room temperature (21 °C) using a Labscan XE instrument (Hunter Associates Labs Inc., Reston, VA) and processed with Universal Software (version 4.10). […]

color [1]	solubility in a broad spectrum of solvents [3]	Appearance (visual appearance of solution) [4]	b* [4]	L* [4]	a* [4]	Compound	Concentration MCP-1 ([2]; P. gingivalis alone 388)	Concentration IL-6 ([2]; P. gingivalis alone 595)	Concentration IL-8 ([2]; P. gingivalis alone 17100)	Concentration of IL-6 (THP1-XBlue cells; 10 µM active co-treated with E. coli LPS)	Concentration of IL-6 (THP1-XBlue cells; 20 µM active co-treated with E. coli LPS)
light yellow	significantly improved solubility	colorless	2.49	68.62	-0.68	COc1cc(C2CC2C(=O)C(C)(C)C(=O)C2CC2c2ccc(O)c(OC)c2)ccc1O (stereo not shown) [compound of formula 1, 1,3-bis(2-(4-hydroxy-3-methoxyphenyl)cyclopropyl)-2,2-dimethylpropane-1,3-dione]	232 pg/mL	286 pg/mL	8321 pg/mL	5591 pg/mL	2996 pg/mL
orange		yellow	63.88	68.53	-18.66	COc1cc(/C=C/C(=O)CC(=O)/C=C/c2ccc(O)c(OC)c2)ccc1O [Curcumin, reference compound]					
